Measurements as given in publication PMC7972841, “In Vivo Molecular Imaging of the Efficacy of Aminopeptidase N (APN/CD13) Receptor Inhibitor Treatment on Experimental Tumors Using ^68Ga-NODAGA-c(NGR) Peptide” (BioMed Research International, 2021).
Read-outs that look alike come from different tables or passages of the source. Where a SMILES comes first, the peptide text is derived from it. Bridges are numbered along the chain shown (N, C = ends). The star is where a group is joined. NODAGA = O=C(O)CN1CCN(CC(=O)O)CCN(C(CCC(=O)*)C(=O)O)CC1

Key:
[1] = set-up: species or system mice; details: mouse, in vivo
Protocol: (§2) After in vivo PET imaging, control-untreated tumor-bearing and treated tumor-bearing animals were euthanized with 5% Forane and dissected, and blood, urine, and samples were taken from the liver, spleen, kidney, small intestine, large intestine, stomach, heart, lungs, tumors, muscles, and fat. The weight and radioactivity of the selected organs and tissues were measured with a calibrated gamma counter (Hewlett Packard Cobra II Autogama Gamma Counter). The uptake of the APN/CD13-specific ^68Ga-NODAGA-c(NGR) radiotracer was expressed as %ID/g tissue.

in vivo [2] = details: C57BL/6, mouse, iv, 5.5 MBq, total radioactivity, SUVmean of tumor
Protocol: (§3) For experimental tumor induction, mice were anaesthetized with a dedicated small animal anaesthesia device (Tec3 Isoflurane Vaporizer, Eickemeyer Veterinary Equipment, UK) using 3% isoflurane (Forane, AbbVie), 0.4 L/min O2, and 1.4 L/min N2O. After depilation of the left shoulder area of the animals, CB17 SCID mice (n = 30) were injected subcutaneously with 1.5 × 10^6 HT1080 (human fibrosarcoma) cells in 150 μL (1/3 part of Matrigel and 2/3 part of saline), and C57BL/6 mice (n = 30) were injected subcutaneously with 3 × 10^6 B16-F10 cells in 150 μL of sterile saline. […] The tumor size was calculated using the following formula: (largest diameter × smallest diameter^2)/2.
(§4) For the actinonin-treated groups, 5 mg/kg actinonin (dissolved in 10 μL abs. EtOH and diluted with 140 μL HumAqua (aqua destillata, TEVA, Debrecen, Hungary)) was administrated daily by intraperitoneal injection for 7 days. The control-untreated group was injected intraperitoneally with 150 μL saline for 7 days.
(§5) Five and ten days after tumor cell implantation, control-untreated tumor-bearing and treated tumor-bearing animals were anaesthetized with 3% isoflurane and were injected with 5.5 ± 0.2 MBq APN/CD13-specific ^68Ga-NODAGA-c(NGR) in 150 μL saline via the lateral tail vein. After 90 min incubation time, 20 min static PET scans were performed from the tumorous area using the preclinical miniPET device (University of Debrecen, Faculty of Medicine, Department of Medical Imaging, Division of Nuclear Medicine and Translational Imaging). After 3D OSEM-LOR image reconstruction, volumes of interest (VOIs) were manually drawn around the examined regions using the BrainCAD image analysis software and quantitative standardized uptake values (SUVs) were calculated as follows: SUV = [VOI activity (Bq/mL)]/[injected activity (Bq)/animal weight (g)], assuming a density of 1 g/mL. Tumor-to-muscle (T/M) ratios were calculated from the activity of the tumor and background (muscle).

[3] = system: B16-F10 tumors (APN/CD13); details: for T/M ratio of treated tumor: 90 min after iv tracer; for ^68Ga-NODAGA-c(NGR) SUVmean of treated tumor: PET 90 min after iv tracer, mean ± SD
Protocol: as §3, §4, §5

in vivo [4] = details: C57BL/6, mouse, iv, 5.5 MBq, total radioactivity, tracer uptake
Protocol: as §4, §2

in vivo [5] = details: CB17 SCID, mouse, iv, 5.5 MBq, total radioactivity
Protocol: as §4, §2

in vivo [6] = details: CB17 SCID, mouse, iv, 5.5 MBq, total radioactivity, SUVmean of tumor
Protocol: as §3, §4, §5

in vitro = in vitro ADME; details: mouse, serum
Protocol: 5 mg (8.6 μmol) c[KNGRE]-NH2 peptide was dissolved in 0.9 mL 0.1 mol/dm^3 Na2CO3 buffer (pH = 8.42), then 7.5 mg (10.2 μmol) NODAGA-NHS ester dissolved in 0.1 mL DMSO was added to the peptide. The reaction was mixed for 24 hours at room temperature. NODAGA-c(NGR) was purified with semipreparative HPLC (KNAUER) and freeze-dried. For the radiolabeling procedure, the in vitro serum stability, and the determination of logp value, the same protocol was used as it was described earlier by our research group.
For the determination of the enzymatic stability, a stock solution was prepared from 100 μL of ^68Ga-NODAGA-c(NGR) solution and 1 mL PBS. 20 μL from this solution was introduced to 480 μL mouse serum (Sigma-Aldrich, St. Louis, Missouri, USA), and the mixture was tempered at 37°C. After 0, 30, 60, 90, and 120 min incubation time, 50 μL sample was taken and 50 μL abs. EtOH was added to the aliquots. Samples were centrifuged (20,000 rpm, 5 min), the supernatant was removed and diluted with the eluent of HPLC, then the analytical measurement was prepared.

HT1080 tumors (APN/CD13) = details: for T/M SUVmean ratio of treated tumor: 90 min after iv tracer; for ^68Ga-NODAGA-c(NGR) SUVmean of treated tumor: PET 90 min after iv tracer, mean ± SD
Protocol: as §3, §4, §5

B16-F10 tumor = assay: Ex vivo biodistribution, B16-F10 tumor-bearing mice; details: B16-F10 tumor-bearing mice treated ip daily (bestatin 15 mg/kg or actinonin 5 mg/kg), mean±SD, n=10
Protocol: as §4, §2

HT1080 tumors = assay: Tumor volume, HT1080 tumors; type: in vivo, CB17 SCID mice; details: caliper, n = 10/group
Protocol: (§6) For experimental tumor induction, mice were anaesthetized with a dedicated small animal anaesthesia device (Tec3 Isoflurane Vaporizer, Eickemeyer Veterinary Equipment, UK) using 3% isoflurane (Forane, AbbVie), 0.4 L/min O2, and 1.4 L/min N2O. After depilation of the left shoulder area of the animals, CB17 SCID mice (n = 30) were injected subcutaneously with 1.5 × 10^6 HT1080 (human fibrosarcoma) cells in 150 μL (1/3 part of Matrigel and 2/3 part of saline), and C57BL/6 mice (n = 30) were injected subcutaneously with 3 × 10^6 B16-F10 cells in 150 μL of sterile saline. Tumor growth was assessed by caliper measurements by the same experienced researcher. The tumor size was calculated using the following formula: (largest diameter × smallest diameter^2)/2.
as §4

HT1080 tumor = assay: Ex vivo biodistribution, HT1080 tumor-bearing mice; details: HT1080 tumor-bearing mice treated ip daily (bestatin 15 mg/kg or actinonin 5 mg/kg), mean±SD, n=10
Protocol: as §4, §2

APN/CD13 [7] = assay: Western blot analysis of APN/CD13 in B16-F10 tumors; type: in vivo, mouse; details: B16-F10 melanoma after treatment, densitometry
Protocol: For western blot analysis frozen tissue samples were pulverized under liquid nitrogen and tissue homogenization was performed with TissueLyser II (QIAGEN). Cells were lysed in RIPA buffer (50 mM Tris, 150 mM NaCl, 0.1 % SDS, 1 % TritonX 100, 0.5 % sodium deoxycolate, 1 mM EDTA, 1 mM Na3VO4, 1 mM NaF, 1 mM PMSF, protease inhibitor cocktail). […] Upon densitometry, negative control samples (mouse large intestine) were considered to be 1 and values are expressed as fold change relative to controls to reduce unwanted variations. […]

B16-F10 tumors = assay: Tumor volume, B16-F10 tumors; type: in vivo, C57BL/6 mice; details: caliper, n = 10/group
Protocol: as §6, §4

AKR tumor = details: 5 mg/kg, syngeneic AKR tumor-bearing mice; cited from earlier work
Description: (§1) In our further in vivo experiments, the efficacy of the actinonin and bestatin treatments was investigated on experimental tumors. The antitumor effect of actinonin was investigated earlier by Xu and coworkers on human (HL60, NB4) and murine (AKR) leukemia and lymphoma (RAJI, DAUDI) cell lines. […] In in vivo studies, syng ...

[8] = system: lymphoma (RAJI, DAUDI) cell lines; details: in vitro; cited from earlier work
Description: as §1

human lymphoma = details: subcutaneous human lymphoma-bearing nude mice; cited from earlier work
Description: as §1

[9] = system: human (HL60, NB4) and murine (AKR) leukemia cell lines; details: in vitro; cited from earlier work
Description: as §1

APN/CD13 [10] = assay: Western blot analysis of APN/CD13 in HT1080 tumors; type: in vivo, human; details: HT1080 tumors after treatment, densitometry
Protocol: For western blot analysis, frozen tissue samples were pulverized under liquid nitrogen, and tissue homogenization was performed with TissueLyser II (QIAGEN). Tumors were lysed in a RIPA buffer. After protein isolation, protein samples (10-40 μg) were separated on 10% SDS polyacrylamide gels and electrotransferred onto nitrocellulose membranes. After blocking, the membranes were incubated with primary anti-human and anti-mouse CD13 (from Santa-Cruz Biotechnology, Inc., USA) antibody at the dilution of 1 : 1000 overnight at 4°C. After washing, the membranes were probed with IgG HRP conjugated secondary antibody (Cell Signaling Technology, Inc., Beverly, MA, 1 : 2000). Beta-actin was used as a loading control. Bands were visualized by enhanced chemiluminescence reaction. Densitometry was performed using the ImageJ software. For the detailed protocol, please see Supplementary Material western blot analysis.
For western blot analysis frozen tissue samples were pulverized under liquid nitrogen and tissue homogenization was performed with TissueLyser II (QIAGEN). […] Upon densitometry, negative control samples (mouse large intestine) were considered to be 1 and values are expressed as fold change relative to controls to reduce unwanted variations. […]

[11] = HT1080, day 3 (start of treatment)
[12] = HT1080, day 5, bestatin 15 mg/kg or actinonin 5 mg/kg ip daily
[13] = HT1080, day 10, bestatin 15 mg/kg or actinonin 5 mg/kg ip daily 7 days
[14] = B16-F10, day 5, bestatin 15 mg/kg or actinonin 5 mg/kg ip daily
[15] = B16-F10, day 5, ip daily from day 3 (bestatin 15 mg/kg, actinonin 5 mg/kg)
[16] = B16-F10, day 10, bestatin 15 mg/kg or actinonin 5 mg/kg ip daily 7 days
[17] = B16-F10, day 10, ip daily 7 days (bestatin 15 mg/kg, actinonin 5 mg/kg)
[18] = B16-F10, day 3 (start of treatment)
[19] = HT1080, day 5, ip daily from day 3 (bestatin 15 mg/kg, actinonin 5 mg/kg)
[20] = HT1080, day 10, ip daily 7 days (bestatin 15 mg/kg, actinonin 5 mg/kg)

N=C(N)NCCC[C@@H]1NC(=O)CNC(=O)[C@H](CC(N)=O)NC(=O)[C@H](CCCCNC(=O)CCC(C(=O)O)N2CCN(CC(=O)O)CCN(CC(=O)O)CC2)NC(=O)CC[C@@H](C(N)=O)NC1=O (some centres unmarked) [^68Ga-NODAGA-c(NGR), metal not drawn] (K(NODAGA)NGRE-NH2; lactam N-5 (inferred))
accumulation in the kidneys [1]: 1.3-1.6 ID%/g
uptake in the liver [1]: 0.08-0.28 ID%/g
SUV at 1.5 h (in vivo [2]): 0.19 ± 0.03 SUV
SUVmean of tumor ([3]; C57BL/6, mouse, in vivo, iv, 5.5 MBq, 1.5 h): 0.36 ± 0.05
tissue uptake at 1.5 h (in vivo [4]; blood): 0.09 ± 0.03 %ID/g
tissue uptake at 1.5 h (in vivo [4]; fat): 0.01 %ID/g
tissue uptake at 1.5 h (in vivo [4]; heart): 0.04 ± 0.01 %ID/g
tissue uptake at 1.5 h (in vivo [4]; kidney): 1.38 ± 0.13 %ID/g
tissue uptake at 1.5 h (in vivo [4]; large intestine): 0.06 ± 0.02 %ID/g
tissue uptake at 1.5 h (in vivo [4]; liver): 0.08 ± 0.02 %ID/g
tissue uptake at 1.5 h (in vivo [4]; lung): 0.1 ± 0.01 %ID/g
tissue uptake at 1.5 h (in vivo [4]; muscle): 0.02 %ID/g
tissue uptake at 1.5 h (in vivo [4]; small intestine): 0.07 ± 0.01 %ID/g
tissue uptake at 1.5 h (in vivo [4]; spleen): 0.05 ± 0.01 %ID/g
tissue uptake at 1.5 h (in vivo [4]; stomach): 0.06 ± 0.01 %ID/g
tissue uptake at 1.5 h (in vivo [4]; tumor): 0.27 ± 0.05 %ID/g
tissue uptake at 1.5 h (in vivo [5]; T/M ID%/g (%ID/g tumor/%ID/g muscle)): 5.3 ± 0.56 %ID/g
tissue uptake at 1.5 h (in vivo [5]; tracer uptake, blood): 0.04 ± 0.01 %ID/g
tissue uptake at 1.5 h (in vivo [5]; tracer uptake, fat): 0.02 ± 0.01 %ID/g
tissue uptake at 1.5 h (in vivo [5]; tracer uptake, heart): 0.03 ± 0.01 %ID/g
tissue uptake at 1.5 h (in vivo [5]; tracer uptake, kidney): 1.35 ± 0.45 %ID/g
tissue uptake at 1.5 h (in vivo [5]; tracer uptake, large intestine): 0.06 ± 0.01 %ID/g
tissue uptake at 1.5 h (in vivo [5]; tracer uptake, liver): 0.2 ± 0.01 %ID/g
tissue uptake at 1.5 h (in vivo [5]; tracer uptake, lung): 0.1 ± 0.02 %ID/g
tissue uptake at 1.5 h (in vivo [5]; tracer uptake, muscle): 0.01 %ID/g
tissue uptake at 1.5 h (in vivo [5]; tracer uptake, small intestine): 0.04 %ID/g
tissue uptake at 1.5 h (in vivo [5]; tracer uptake, spleen): 0.11 ± 0.02 %ID/g
tissue uptake at 1.5 h (in vivo [5]; tracer uptake, stomach): 0.04 ± 0.01 %ID/g
tissue uptake at 1.5 h (in vivo [5]; tracer uptake, tumor): 0.08 ± 0.04 %ID/g
SUV at 1.5 h (in vivo [6]): 0.07 ± 0.03 SUV
remaining at 2 h (in vitro): > 99%
SUVmean of tumor (HT1080 tumors (APN/CD13); CB17 SCID, mouse, in vivo, iv, 5.5 MBq, 1.5 h): 0.10 ± 0.05

CCCCC[C@H](CC(=O)NO)C(=O)N[C@H](C(=O)N1CCC[C@H]1CO)C(C)C [actinonin]
T/M ID%/g, treated animals (B16-F10 tumor): 1.71±1.45
tumor volume (HT1080 tumors; [11]): 49.1 ± 2.0 mm^3
tumor volume (HT1080 tumors; [12]): 68.08 ± 2.5 mm^3
tumor volume (HT1080 tumors; [13]): 136.0 ± 8.5 mm^3
T/M ratio of treated tumor [3, 14]: 0.75 ± 0.15
^68Ga-NODAGA-c(NGR) SUVmean of treated tumor [3, 15]: 0.02 ± 0.001
T/M ratio of treated tumor [3, 16]: 0.74 ± 0.05
^68Ga-NODAGA-c(NGR) SUVmean of treated tumor [3, 17]: 0.02 ± 0.001
T/M ID%/g, treated animals (HT1080 tumor): 15.27±5.52
expression of APN/CD13 in tumor vs untreated (APN/CD13 [7]): significantly lower
tumor volume (B16-F10 tumors; [18]): 49.0 ± 2.7 mm^3
tumor volume (B16-F10 tumors; [14]): 59 ± 4.9 mm^3
tumor volume (B16-F10 tumors; [16]): 56.1 ± 2.1 mm^3
antitumor effect (AKR tumor): full antitumor effect
growth of APN/CD13-negative lymphomas [8]: arrested the growth
antitumor effect (human lymphoma): not seen
tumor growth of APN/CD13-positive leukemia [9]: blocked the tumor growth
T/M SUVmean ratio of treated tumor (HT1080 tumors (APN/CD13); [12]): 2.25 ± 1.0
^68Ga-NODAGA-c(NGR) SUVmean of treated tumor (HT1080 tumors (APN/CD13); [19]): 0.08 ± 0.04
T/M SUVmean ratio of treated tumor (HT1080 tumors (APN/CD13); [13]): 15.57 ± 4.0
^68Ga-NODAGA-c(NGR) SUVmean of treated tumor (HT1080 tumors (APN/CD13); [20]): 0.11 ± 0.05

CC(C)C[C@H](NC(=O)[C@@H](O)[C@H](N)Cc1ccccc1)C(=O)O [bestatin]
T/M ID%/g, treated animals (B16-F10 tumor): 2.40±0.92
tumor volume (HT1080 tumors; [11]): 52.3 ± 2.8 mm^3
tumor volume (HT1080 tumors; [12]): 17 ± 1.2 mm^3
tumor volume (HT1080 tumors; [13]): 7.0 ± 2.0 mm^3
amount of APN/CD13 protein in tumor vs control-untreated (APN/CD13 [10]): did not significantly reduce
T/M ratio of treated tumor [3, 14]: 1.11 ± 0.01
^68Ga-NODAGA-c(NGR) SUVmean of treated tumor [3, 15]: 0.03 ± 0.01
T/M ratio of treated tumor [3, 16]: 1.63 ± 0.09
^68Ga-NODAGA-c(NGR) SUVmean of treated tumor [3, 17]: 0.04 ± 0.001
T/M ID%/g, treated animals (HT1080 tumor): 1.45±0.15
expression of APN/CD13 in tumor vs untreated (APN/CD13 [7]): significantly lower
tumor volume (B16-F10 tumors; [18]): 52.1 ± 2.6 mm^3
tumor volume (B16-F10 tumors; [14]): 65.0 ± 5.2 mm^3
tumor volume (B16-F10 tumors; [16]): 62.0 ± 2.8 mm^3
T/M SUVmean ratio of treated tumor (HT1080 tumors (APN/CD13); [12]): 0.57 ± 0.2
^68Ga-NODAGA-c(NGR) SUVmean of treated tumor (HT1080 tumors (APN/CD13); [19]): 0.02 ± 0.01
T/M SUVmean ratio of treated tumor (HT1080 tumors (APN/CD13); [13]): 0.61 ± 0.20
^68Ga-NODAGA-c(NGR) SUVmean of treated tumor (HT1080 tumors (APN/CD13); [20]): 0.01 ± 0.01
